Where a SMILES comes first, the peptide text is derived from it. Bridges are numbered along the chain shown (N, C = ends).
What was measured:
H23 cells = format: cell-based, human; details: 24 h; SD
Method: (§1) MTT (3-(4, 5-dimethylthiazol-2-yl)-2, 5-diphenyltetrazolium bromide) cell viability assay was performed to evaluate the cell proliferation inhibitory rate of synthetic peptides in a series of human cell lines: PC-3 (ATCC® CRL-1435™), H157 (RRID: CVCL_0463), H460 (ATCC® HTB-177™), H838 (ATCC® CRL-5844™), H23 (ATCC® CRL-5800™), MCF-7 (ATCC® HTB-22™), HCT116 (ATCC® CCL-247™), U251MG (ECACC-09063001) and HMEC-1 (ATCC® CRL-3243™) which was detailed in the previous report.

HMEC-1 cells = format: cell-based, human; details: 24 h; SD
Method: as §1

PC-3 cells = format: cell-based, human; details: 24 h; SD
Method: as §1

MCF-7 cells = format: cell-based, human; details: 24 h; SD
Method: as §1

H157 cells = format: cell-based, human; details: 24 h; SD
Method: as §1

H460 cells = format: cell-based, human; details: 24 h; SD
Method: as §1

H838 cells = format: cell-based, human; details: 24 h; SD
Method: as §1

chymotrypsin = chymotrypsin (Bos taurus, UniProt P00766); experiment: biochemical
Method: Ten microliters of trypsin/chymotrypsin (Sigma Aldrich, Dorset, UK) working solution (0.1 µM in 1 mM HCl) was added into the wells of a black micro-titre plate with corresponding substrate and peptide replicates (0.1–100 µM) in 10 mM phosphate buffer (final volume 210 μL). Additionally, Phe-Pro-Arg- NHMec (Bachem, Cambridge, UK) and Succinyl-Ala-Ala-Pro-Phe-NHMec (Bachem, Cambridge, UK) were performed as substrates for trypsin and chymotrypsin, respectively. The fluorescence intensity of NHMec was monitored at 37 °C continuously for 30 min by a FLUOstar OPTIMA multi-well plate reader (BMG Labtech, Ortenberg, Germany) at wavelengths of 460 nm for emission and 395 nm for excitation.

[1] = tested on: Escherichia coli (ATCC 11775); format: cell-based
Method: (§2) Antimicrobial activity of the synthetic peptides was assessed by determination of MIC/MBC on Escherichia coli (ATCC 11775), Staphylococcus aureus (ATCC 12600), Candida albicans (NCYC 1467) and methicillin-resistant Staphylococcus aureus (MRSA) (NCTC 12493) according to the previous report. Briefly, the test microorganism was inoculated in Mueller Hinton Broth (MHB) medium and incubated overnight at 37 °C. Then the subculture was performed until the optical density (OD) reached the logarithmic growth phase and diluted to 1 × 10^6 colony forming units (CFU)/mL for bacteria and 1 × 10^5 CFU/mL for fungus obtained. The synthetic peptides with the concentration from 1 to 512 µM were double diluted by PBS. Five replications of sterile control, vehicle control and growth control were set as 100 µL MHB/well, 100 µL 1% PBS with subculture solution/well and 100 µl subculture solution/well, respectively. The 96-well plate was incubated at 37 °C overnight. The absorbance of each well at 550 nm was measured by Synergy HT plate reader (Biotech, Minneapolis, MN, USA). The minimum bactericidal concentration was detected by sub-culturing treated samples onto Mueller-Hinton agar (MHA) plate for another eighteen hours at 37 °C.

[2] = tested on: Staphylococcus aureus (ATCC 12600); format: cell-based
Method: as §2

[3] = tested on: methicillin-resistant Staphylococcus aureus (MRSA) (NCTC 12493); format: cell-based
Method: as §2

[4] = tested on: Candida albicans (NCYC 1467); format: cell-based
Method: as §2

SMILES: CC[C@H](C)[C@@H]1NC(=O)[C@H](CO)NC(=O)[C@H](Cc2ccccc2)NC(=O)[C@H]([C@@H](C)O)NC(=O)[C@H](Cc2c[nH]c3ccccc23)NC(=O)[C@@H](NC(=O)CNC(=O)[C@H](CCCNC(=N)N)NC(=O)[C@H](CC(C)C)NC(=O)[C@H](C)NC(=O)[C@@H](N)CO)CSSC[C@@H](C(=O)N[C@@H](CC(C)C)C(N)=O)NC(=O)[C@@H]2CCCN2C(=O)[C@H](CCCCN)NC(=O)[C@@H]2CCCN2C(=O)[C@@H]2CCCN2C1=O [F-SL] (H-SALRGCWTFSIPPKPCL-NH2; disulfide 6-16)
- IC50 (H23 cells): 79.1 ± 6.41 µM
- IC50 (HMEC-1 cells): 574 ± 9.41 µM
- IC50 (PC-3 cells): 159 ± 6.44 µM
- IC50 (MCF-7 cells): 202 ± 10.6 µM
- IC50 (H157 cells): 101 ± 1.74 µM
- IC50 (H460 cells): 66 ± 2.64 µM
- IC50 (H838 cells): 59.7 ± 2.72 µM
- Ki (chymotrypsin): 0.309 µM
- MBC, E. coli [1]: >512 µM
- MIC, E. coli [1]: >512 µM
- MBC, S. aureus [2]: >512 µM
- MIC, S. aureus [2]: >512 µM
- MBC, MRSA [3]: >512 µM
- MIC, MRSA [3]: >512 µM
- MBC, C. albicans [4]: >512 µM
- MIC, C. albicans [4]: >512 µM

SMILES: CC[C@H](C)[C@@H]1NC(=O)[C@H](CO)NC(=O)[C@H](CCCCN)NC(=O)[C@H]([C@@H](C)O)NC(=O)[C@H](Cc2c[nH]c3ccccc23)NC(=O)[C@@H](NC(=O)CNC(=O)[C@H](CCCNC(=N)N)NC(=O)[C@H](CC(C)C)NC(=O)[C@H](C)NC(=O)[C@H](C)N)CSSC[C@@H](C(=O)N[C@@H](CCCCN)C(N)=O)NC(=O)[C@@H]2CCCN2C(=O)[C@H](CCCCN)NC(=O)[C@@H]2CCCN2C(=O)[C@@H]2CCCN2C1=O [K-SL] (H-AALRGCWTKSIPPKPCK-NH2; disulfide 6-16)
- MBC, E. coli [1]: 128/128 μM
- MBC, S. aureus [2]: 64/64 μM
- MBC, MRSA [3]: >512 µM
- MIC, MRSA [3]: >512 µM
- MBC, C. albicans [4]: 64/64 μM

SMILES: CC(C)C[C@H](NC(=O)[C@@H]1CSSC[C@H](NC(=O)CNC(=O)[C@H](CCCNC(=N)N)NC(=O)[C@H](CC(C)C)NC(=O)[C@H](C)NC(=O)[C@@H](N)CO)C(=O)N[C@@H](Cc2c[nH]c3ccccc23)C(=O)N[C@@H]([C@@H](C)O)C(=O)N[C@@H](CCCCN)C(=O)N[C@@H](CO)C(=O)N[C@@H](Cc2ccc(O)cc2)C(=O)N2CCC[C@H]2C(=O)N2CCC[C@H]2C(=O)N[C@@H](CCCCN)C(=O)N2CCC[C@H]2C(=O)N1)C(N)=O [SL-BBI] (H-SALRGCWTKSYPPKPCL-NH2; disulfide 6-16)
- MBC, E. coli [1]: 128/128 μM
- MBC, S. aureus [2]: 256 µM
- MIC, S. aureus [2]: 256 µM
- MBC, MRSA [3]: >512 µM
- MIC, MRSA [3]: >512 µM
- MBC, C. albicans [4]: 256 µM
- MIC, C. albicans [4]: 256 µM

From PMC7565067, “Identification and Target-Modification of SL-BBI: A Novel Bowman–Birk Type Trypsin Inhibitor from Sylvirana latouchii” (Biomolecules, 2020)
